Read-outs that look alike come from different tables or passages of the source.
Key:
Test in all cases: Glasshouse assay for herbicidal activity (pre- and post-emergence), percentage phytotoxicity
Type in all cases: in vivo
[1] = system: Alopecurus myosuroides (ALOMY); conditions: Alopecurus myosuroides
In short: (§1)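 Percent injury was estimated by eye on a scale where 0% means no damage and 100% complete damage. Ratings came 15 DAA post-emergence and 20 DAA pre-emergence, with plants held under 16 h light and 65% humidity at 24/18 °C or 20/16 °C day/night.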

Lolium perenne (LOLPE) = conditions: Lolium perenne
In short: as §1

[2] = system: Echinochloa crus-galli (ECHCG); conditions: Echinochloa crus-galli
In short: as §1

Avena fatua (AVEFA) = conditions: Avena fatua
In short: as §1

[3] = post-emergence, 360 h, POST-emergence, rate 250 g/ha, visual score 15 DAA (100%=total damage, 0%=no damage), read-out: Post-emergence herbicidal activity (percentage phytotoxicity) ALOMY POST
[4] = pre-emergence, 480 h, PRE-emergence, rate 250 g/ha, visual score 20 DAA (100%=total damage, 0%=no damage), read-out: Pre-emergence herbicidal activity (percentage phytotoxicity) ALOMY PRE
[5] = post-emergence, 360 h, POST-emergence, rate 250 g/ha, visual score 15 DAA (100%=total damage, 0%=no damage), read-out: Post-emergence herbicidal activity (percentage phytotoxicity) LOLPE POST
[6] = pre-emergence, 480 h, PRE-emergence, rate 250 g/ha, visual score 20 DAA (100%=total damage, 0%=no damage), read-out: Pre-emergence herbicidal activity (percentage phytotoxicity) LOLPE PRE
[7] = post-emergence, 360 h, POST-emergence, rate 250 g/ha, visual score 15 DAA (100%=total damage, 0%=no damage), read-out: Post-emergence herbicidal activity (percentage phytotoxicity) ECHCG POST
[8] = pre-emergence, 480 h, PRE-emergence, rate 250 g/ha, visual score 20 DAA (100%=total damage, 0%=no damage), read-out: Pre-emergence herbicidal activity (percentage phytotoxicity) ECHCG PRE
[9] = post-emergence, 360 h, POST-emergence, rate 250 g/ha, visual score 15 DAA (100%=total damage, 0%=no damage), read-out: Post-emergence herbicidal activity (percentage phytotoxicity) AVEFA POST
[10] = pre-emergence, 480 h, PRE-emergence, rate 250 g/ha, visual score 20 DAA (100%=total damage, 0%=no damage), read-out: Pre-emergence herbicidal activity (percentage phytotoxicity) AVEFA PRE
[11] = post-emergence, 360 h, 250 g/ha, post-emergence, 15 DAA, visual assessment (100%=total damage, 0%=no damage), read-out: Post-emergence herbicidal activity (percentage phytotoxicity) ALOMY POST
[12] = pre-emergence, 480 h, 250 g/ha, pre-emergence, 20 DAA, visual assessment (100%=total damage, 0%=no damage), read-out: Pre-emergence herbicidal activity (percentage phytotoxicity) ALOMY PRE
[13] = post-emergence, 360 h, 250 g/ha, post-emergence, 15 DAA, visual assessment (100%=total damage, 0%=no damage), read-out: Post-emergence herbicidal activity (percentage phytotoxicity) LOLPE POST
[14] = pre-emergence, 480 h, 250 g/ha, pre-emergence, 20 DAA, visual assessment (100%=total damage, 0%=no damage), read-out: Pre-emergence herbicidal activity (percentage phytotoxicity) LOLPE PRE
[15] = post-emergence, 360 h, 250 g/ha, post-emergence, 15 DAA, visual assessment (100%=total damage, 0%=no damage), read-out: Post-emergence herbicidal activity (percentage phytotoxicity) ECHCG POST
[16] = pre-emergence, 480 h, 250 g/ha, pre-emergence, 20 DAA, visual assessment (100%=total damage, 0%=no damage), read-out: Pre-emergence herbicidal activity (percentage phytotoxicity) ECHCG PRE
[17] = post-emergence, 360 h, 250 g/ha, post-emergence, 15 DAA, visual assessment (100%=total damage, 0%=no damage), read-out: Post-emergence herbicidal activity (percentage phytotoxicity) AVEFA POST
[18] = pre-emergence, 480 h, 250 g/ha, pre-emergence, 20 DAA, visual assessment (100%=total damage, 0%=no damage), read-out: Pre-emergence herbicidal activity (percentage phytotoxicity) AVEFA PRE

How did the pest or weed control at 250 g/ha [1, 3] turn out when `C/C=C/c1cc(C)c(C2C(=O)CC(CC(=O)NCc3cccc(Cl)c3)C2=O)c(CC)c1` (stereo not drawn) [Compound B187] was run?
Its pest or weed control at 250 g/ha is 70%.

What about the pest or weed control at 250 g/ha [1, 4] of the same compound?
The pest or weed control at 250 g/ha was 70%.

And the pest or weed control at 250 g/ha (Lolium perenne (LOLPE); [5])?
Its pest or weed control at 250 g/ha is 90%.

And the pest or weed control at 250 g/ha (Lolium perenne (LOLPE); [6])?
The pest or weed control at 250 g/ha was 80%.

What about the pest or weed control at 250 g/ha [2, 7] of the same compound?
The pest or weed control at 250 g/ha was 100%.

And the pest or weed control at 250 g/ha [2, 8]?
The pest or weed control at 250 g/ha was 80%.

And the pest or weed control at 250 g/ha (Avena fatua (AVEFA); [9])?
Its pest or weed control at 250 g/ha is 70%.

What about the pest or weed control at 250 g/ha (Avena fatua (AVEFA); [10]) of the same compound?
The pest or weed control at 250 g/ha was 10%.

How did the pest or weed control at 250 g/ha [1, 11] turn out when `CCCCNC(=O)CC1CC(=O)C(c2c(C)cc(-c3ncc(F)cn3)cc2C)C1=O` (stereo not drawn) [Compound B111] was run?
The pest or weed control at 250 g/ha was 100%.

And the pest or weed control at 250 g/ha [1, 12]?
Its pest or weed control at 250 g/ha is 70%.

And the pest or weed control at 250 g/ha (Lolium perenne (LOLPE); [13])?
The pest or weed control at 250 g/ha was 100%.

What about the pest or weed control at 250 g/ha (Lolium perenne (LOLPE); [14]) of the same compound?
Its pest or weed control at 250 g/ha is 100%.

And the pest or weed control at 250 g/ha [2, 15]?
Its pest or weed control at 250 g/ha is 100%.

And the pest or weed control at 250 g/ha [2, 16]?
Its pest or weed control at 250 g/ha is 100%.

What about the pest or weed control at 250 g/ha (Avena fatua (AVEFA); [17]) of the same compound?
The pest or weed control at 250 g/ha was 100%.

And the pest or weed control at 250 g/ha (Avena fatua (AVEFA); [18])?
The pest or weed control at 250 g/ha was 90%.

For `C#Cc1ccc(CNC(=O)CC2CC(=O)C(c3c(C)cc(C)cc3C)C2=O)cc1` (stereo not drawn) [Compound B34], which pest or weed control at 250 g/ha [1, 11] is on record?
The pest or weed control at 250 g/ha was 60%.

And the pest or weed control at 250 g/ha [1, 12]?
The pest or weed control at 250 g/ha was 70%.

And the pest or weed control at 250 g/ha (Lolium perenne (LOLPE); [13])?
The pest or weed control at 250 g/ha was 80%.

What about the pest or weed control at 250 g/ha (Lolium perenne (LOLPE); [14]) of the same compound?
The pest or weed control at 250 g/ha was 90%.

And the pest or weed control at 250 g/ha [2, 15]?
Its pest or weed control at 250 g/ha is 100%.

What about the pest or weed control at 250 g/ha [2, 16] of the same compound?
Its pest or weed control at 250 g/ha is 100%.

What about the pest or weed control at 250 g/ha (Avena fatua (AVEFA); [17]) of the same compound?
Its pest or weed control at 250 g/ha is 90%.

What about the pest or weed control at 250 g/ha (Avena fatua (AVEFA); [18]) of the same compound?
Its pest or weed control at 250 g/ha is 80%.

`COCCN(CCOC)C(=O)CC1CC(=O)C(c2c(C)cc(-c3ncc(F)cn3)cc2C)C1=O` (stereo not drawn) [Compound B281] was tested. Which pest or weed control at 250 g/ha [1, 3] did it give?
The pest or weed control at 250 g/ha was 100%.

And the pest or weed control at 250 g/ha [1, 4]?
The pest or weed control at 250 g/ha was 80%.

What about the pest or weed control at 250 g/ha (Lolium perenne (LOLPE); [5]) of the same compound?
Its pest or weed control at 250 g/ha is 90%.

And the pest or weed control at 250 g/ha (Lolium perenne (LOLPE); [6])?
Its pest or weed control at 250 g/ha is 80%.

And the pest or weed control at 250 g/ha [2, 7]?
Its pest or weed control at 250 g/ha is 100%.

What about the pest or weed control at 250 g/ha [2, 8] of the same compound?
Its pest or weed control at 250 g/ha is 100%.

What about the pest or weed control at 250 g/ha (Avena fatua (AVEFA); [9]) of the same compound?
The pest or weed control at 250 g/ha was 100%.

And the pest or weed control at 250 g/ha (Avena fatua (AVEFA); [10])?
The pest or weed control at 250 g/ha was 80%.

Which pest or weed control at 250 g/ha ([1]; post-emergence, 360 h, Rate 250 g/ha, post-emergence, visual assessment 15 DAA, 100%=total damage, 0%=no damage, read-out: Post-emergence herbicidal activity (percentage phytotoxicity) ALOMY POST) does the source give for `C#CC(C)(C)NC(=O)CC1CC(=O)C(c2c(C)cc(-c3ncc(Cl)cn3)cc2C)C1=O` (stereo not drawn) [Compound B343] here?
The pest or weed control at 250 g/ha was 100%.

What about the pest or weed control at 250 g/ha ([1]; pre-emergence, 480 h, Rate 250 g/ha, pre-emergence, visual assessment 20 DAA, 100%=total damage, 0%=no damage, read-out: Pre-emergence herbicidal activity (percentage phytotoxicity) ALOMY PRE) of the same compound?
The pest or weed control at 250 g/ha was 100%.

And the pest or weed control at 250 g/ha (Lolium perenne (LOLPE); post-emergence, 360 h, Rate 250 g/ha, post-emergence, visual assessment 15 DAA, 100%=total damage, 0%=no damage, read-out: Post-emergence herbicidal activity (percentage phytotoxicity) LOLPE POST)?
Its pest or weed control at 250 g/ha is 100%.

And the pest or weed control at 250 g/ha (Lolium perenne (LOLPE); pre-emergence, 480 h, Rate 250 g/ha, pre-emergence, visual assessment 20 DAA, 100%=total damage, 0%=no damage, read-out: Pre-emergence herbicidal activity (percentage phytotoxicity) LOLPE PRE)?
Its pest or weed control at 250 g/ha is 100%.

What about the pest or weed control at 250 g/ha ([2]; post-emergence, 360 h, Rate 250 g/ha, post-emergence, visual assessment 15 DAA, 100%=total damage, 0%=no damage, read-out: Post-emergence herbicidal activity (percentage phytotoxicity) ECHCG POST) of the same compound?
Its pest or weed control at 250 g/ha is 100%.

And the pest or weed control at 250 g/ha ([2]; pre-emergence, 480 h, Rate 250 g/ha, pre-emergence, visual assessment 20 DAA, 100%=total damage, 0%=no damage, read-out: Pre-emergence herbicidal activity (percentage phytotoxicity) ECHCG PRE)?
Its pest or weed control at 250 g/ha is 100%.

And the pest or weed control at 250 g/ha (Avena fatua (AVEFA); post-emergence, 360 h, Rate 250 g/ha, post-emergence, visual assessment 15 DAA, 100%=total damage, 0%=no damage, read-out: Post-emergence herbicidal activity (percentage phytotoxicity) AVEFA POST)?
The pest or weed control at 250 g/ha was 100%.

And the pest or weed control at 250 g/ha (Avena fatua (AVEFA); pre-emergence, 480 h, Rate 250 g/ha, pre-emergence, visual assessment 20 DAA, 100%=total damage, 0%=no damage, read-out: Pre-emergence herbicidal activity (percentage phytotoxicity) AVEFA PRE)?
Its pest or weed control at 250 g/ha is 90%.

`Cc1cc(C)c(C2C(=O)CC(CC(=O)NC3CCOCC3)C2=O)c(C)c1` (stereo not drawn) [Compound A17] was tested. Which pest or weed control at 250 g/ha ([1]; post-emergence, 360 h, Rate 250 g/ha, post-emergence, assessed visually 15 DAA, 100%=total damage, 0%=no damage, read-out: Post-emergence herbicidal activity (percentage phytotoxicity) ALOMY POST) did it give?
Its pest or weed control at 250 g/ha is 80%.

And the pest or weed control at 250 g/ha ([1]; pre-emergence, 480 h, Rate 250 g/ha, pre-emergence, assessed visually 20 DAA, 100%=total damage, 0%=no damage, read-out: Pre-emergence herbicidal activity (percentage phytotoxicity) ALOMY PRE)?
The pest or weed control at 250 g/ha was 70%.

What about the pest or weed control at 250 g/ha (Lolium perenne (LOLPE); post-emergence, 360 h, Rate 250 g/ha, post-emergence, assessed visually 15 DAA, 100%=total damage, 0%=no damage, read-out: Post-emergence herbicidal activity (percentage phytotoxicity) LOLPE POST) of the same compound?
Its pest or weed control at 250 g/ha is 80%.

And the pest or weed control at 250 g/ha (Lolium perenne (LOLPE); pre-emergence, 480 h, Rate 250 g/ha, pre-emergence, assessed visually 20 DAA, 100%=total damage, 0%=no damage, read-out: Pre-emergence herbicidal activity (percentage phytotoxicity) LOLPE PRE)?
The pest or weed control at 250 g/ha was 70%.

And the pest or weed control at 250 g/ha ([2]; post-emergence, 360 h, Rate 250 g/ha, post-emergence, assessed visually 15 DAA, 100%=total damage, 0%=no damage, read-out: Post-emergence herbicidal activity (percentage phytotoxicity) ECHCG POST)?
Its pest or weed control at 250 g/ha is 80%.

And the pest or weed control at 250 g/ha ([2]; pre-emergence, 480 h, Rate 250 g/ha, pre-emergence, assessed visually 20 DAA, 100%=total damage, 0%=no damage, read-out: Pre-emergence herbicidal activity (percentage phytotoxicity) ECHCG PRE)?
Its pest or weed control at 250 g/ha is 70%.

What about the pest or weed control at 250 g/ha (Avena fatua (AVEFA); post-emergence, 360 h, Rate 250 g/ha, post-emergence, assessed visually 15 DAA, 100%=total damage, 0%=no damage, read-out: Post-emergence herbicidal activity (percentage phytotoxicity) AVEFA POST) of the same compound?
The pest or weed control at 250 g/ha was 70%.

What about the pest or weed control at 250 g/ha (Avena fatua (AVEFA); pre-emergence, 480 h, Rate 250 g/ha, pre-emergence, assessed visually 20 DAA, 100%=total damage, 0%=no damage, read-out: Pre-emergence herbicidal activity (percentage phytotoxicity) AVEFA PRE) of the same compound?
Its pest or weed control at 250 g/ha is 40%.
